The text below walks through data of patent US8691859B2 (priority 2005, dated 2014).

Experiment [1] concerns B. anthracis GFP sterne vegetative cells. Description: microbe, parasite or virus in culture. Format: cell-based. As to conditions: Bacillus anthracis, read-out: MIC B. anthracis vegetative cells.
Experiment [2] deals with B. anthracis GFP sterne spores. The experiment can be described thus: microbe, parasite or virus in culture. The class given is cell-based. As to conditions: Bacillus anthracis.
For another experiment, the target named is anthrax lethal factor (Bacillus anthracis, UniProt P15917). Format: biochemical.
Chain of anthrax lethal factor (P15917 34-809 limits assumed): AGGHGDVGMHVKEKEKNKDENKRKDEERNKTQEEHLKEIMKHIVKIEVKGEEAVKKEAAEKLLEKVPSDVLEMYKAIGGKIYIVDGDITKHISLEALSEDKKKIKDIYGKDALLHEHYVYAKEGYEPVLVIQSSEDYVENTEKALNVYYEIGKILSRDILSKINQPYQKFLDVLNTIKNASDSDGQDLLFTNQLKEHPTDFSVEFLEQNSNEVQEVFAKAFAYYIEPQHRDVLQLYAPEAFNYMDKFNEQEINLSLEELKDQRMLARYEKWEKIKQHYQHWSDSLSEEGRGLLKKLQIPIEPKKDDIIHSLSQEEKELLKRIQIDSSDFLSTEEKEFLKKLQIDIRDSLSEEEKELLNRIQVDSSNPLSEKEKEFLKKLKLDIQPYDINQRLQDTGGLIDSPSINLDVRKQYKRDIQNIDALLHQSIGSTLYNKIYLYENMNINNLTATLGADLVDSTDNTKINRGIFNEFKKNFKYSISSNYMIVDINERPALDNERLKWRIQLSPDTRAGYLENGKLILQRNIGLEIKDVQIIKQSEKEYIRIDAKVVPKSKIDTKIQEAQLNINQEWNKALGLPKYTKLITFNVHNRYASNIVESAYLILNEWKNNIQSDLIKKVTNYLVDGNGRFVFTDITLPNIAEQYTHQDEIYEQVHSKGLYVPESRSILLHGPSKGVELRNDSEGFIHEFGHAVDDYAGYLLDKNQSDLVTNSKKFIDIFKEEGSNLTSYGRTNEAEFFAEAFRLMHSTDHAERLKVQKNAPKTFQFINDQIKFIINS
In experiment [3] the target is botulinum neurotoxin serotype A light chain (Clostridium botulinum, UniProt P0DPI0). The class given is biochemical, Clostridium botulinium.
Chain of botulinum neurotoxin serotype A light chain (P0DPI0 2-448 limits assumed): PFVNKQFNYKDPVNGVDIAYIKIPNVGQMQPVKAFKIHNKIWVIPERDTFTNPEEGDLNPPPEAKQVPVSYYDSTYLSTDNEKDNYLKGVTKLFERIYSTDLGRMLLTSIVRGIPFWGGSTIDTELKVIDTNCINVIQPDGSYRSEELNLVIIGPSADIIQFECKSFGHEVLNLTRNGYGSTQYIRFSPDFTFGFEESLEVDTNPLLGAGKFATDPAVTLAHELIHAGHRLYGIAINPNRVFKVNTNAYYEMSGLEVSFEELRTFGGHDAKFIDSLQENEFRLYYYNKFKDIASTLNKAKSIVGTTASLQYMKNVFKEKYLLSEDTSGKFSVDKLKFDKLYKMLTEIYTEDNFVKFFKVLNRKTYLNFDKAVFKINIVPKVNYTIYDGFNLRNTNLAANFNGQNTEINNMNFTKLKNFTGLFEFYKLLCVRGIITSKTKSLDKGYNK
The test system of another experiment is S. aureus. The experiment can be described thus: microbe, parasite or virus in culture. The class given is cell-based. As to conditions: Staphylococcus aureus.
The test system of a further experiment is Sterne spores. Format: cell-based, B. anthracis.
The subject of experiment [4] is Burkholderia pseudomallei. Description: microbe, parasite or virus in culture. The class given is cell-based.
Another experiment relates to B. pumilus. Description: microbe, parasite or virus in culture. Particulars: Bacillus pumilus. Format: cell-based.
Experiment [5] concerns Ames spores. The experiment can be described thus: microbe, parasite or virus in culture. The class given is cell-based, B. anthracis. Particulars: Bacillus anthracis.
Another experiment relates to K. pneumoniae. Description: microbe, parasite or virus in culture. As to conditions: Klebsiella pneumoniae. Format: cell-based.
Another experiment concerns B. brevis. The experiment can be described thus: microbe, parasite or virus in culture. The class given is cell-based. Particulars: Brevibacillus brevis.
Experiment [6] has as its system Burkholderia thailandensis. Description: microbe, parasite or virus in culture. The class given is cell-based.
Experiment [7] has as its system Ames spores. Description: microbe, parasite or virus in culture. The class given is cell-based, B. anthracis. Particulars: Bacillus anthracis. The source holds these as a separate data set.
For the next experiment, the system named is B. anthracis Ames. Description: microbe, parasite or virus in culture. The class given is cell-based. As to conditions: Bacillus anthracis.
A further experiment concerns B. megaterium. Description: microbe, parasite or virus in culture. Format: cell-based. Particulars: Priestia megaterium.
Another experiment relates to Y. pestis. Description: microbe, parasite or virus in culture. Format: cell-based. As to conditions: Yersinia pestis.
The next experiment relates to E. feacalis. The experiment can be described thus: organism not typed. Format: cell-based.
A further experiment has as its system Burkholderia mallei. Description: microbe, parasite or virus in culture. Format: cell-based.
The subject of the next experiment is B. cepacia. Description: microbe, parasite or virus in culture. The class given is cell-based. Particulars: Burkholderia cepacia.
In another experiment the test system is B. subtilis. Description: microbe, parasite or virus in culture. Format: cell-based. Particulars: Bacillus subtilis.
The test system of another experiment is B. licheniformis. Description: microbe, parasite or virus in culture. Format: cell-based. As to conditions: Bacillus licheniformis.
The next experiment relates to P. aeruginosa PAO1. Description: microbe, parasite or virus in culture. As to conditions: Pseudomonas aeruginosa. Format: cell-based.
The subject of experiment [8] is Methicillin resistant S. aureus. Description: microbe, parasite or virus in culture. Format: cell-based. As to conditions: Staphylococcus aureus.
The next experiment deals with E. coli. The experiment can be described thus: microbe, parasite or virus in culture. The class given is cell-based. Particulars: Escherichia coli.
Another experiment deals with Sterne GFP spores. The class given is cell-based, B. anthracis.
Experiment [9] relates to B. vollum. The experiment can be described thus: organism not typed. Format: cell-based.
In experiment [10] the test system is B. vollum. Description: organism not typed. The class given is cell-based. The source holds these as a separate data set.
The mark [11] stands for this setting: read-out: MIC B. anthracis spores.

Converted amounts (≈) assume the structure as drawn. Like-named read-outs stand apart in the source and are kept apart here. A value given as a limit tells only on which side of the number the result lay.

`N=C(N)c1ccc(Oc2ccc(-c3cc4ccc(C(=N)N)cc4[nH]3)cc2)cc1` [NSC 240898, 2-[4-(4-carbamimidoylphenoxy)phenyl]-1H-indole-6-carboximidamide]: the MIC in experiment [1] and in [2] (setting [11]) was 4.42 µg/mL (≈ 12 µM) each time. In addition, the “inhibition of the protease activity of anthrax lethal factor” value (“inhibition … of anthrax lethal factor” below) on anthrax lethal factor is “inhibit”. For the same compound, the “inhibition of botulinum neurotoxin serotype A light chain metalloprotease activity” value in [3] is given as “inhibit”.
For the compound `N=C(N)c1ccc2oc(/C=C/C=C/C=C/c3cc4cc(C(=N)N)ccc4o3)cc2c1` [NSC 308574, 2-[(1E,3E,5E)-6-(5-carbamimidoylbenzofuran-2-yl)hexa-1,3,5-trienyl]benzofuran-5-carboximidamide], the MIC was 9.38 µg/mL (≈ 23.7 µM) in [1] and 2.35 µg/mL (≈ 5.91 µM) in experiment [2] (setting [11]). Besides, the “inhibition … of anthrax lethal factor” value against anthrax lethal factor is “inhibit”. Also, in experiment [3], the “inhibition of botulinum neurotoxin serotype A light chain metalloprotease activity” value was “inhibit”.
With `C(=C\c1cc2ccc(C3=NCCN3)cc2[nH]1)/c1cc2ccc(C3=NCCN3)cc2[nH]1` [NSC 317880, 6-(4,5-dihydro-1H-imidazol-2-yl)-2-[(E)-2-[6-(4,5-dihydro-1H-imidazol-2-yl)-1H-indol-2-yl]ethenyl]-1H-indole], the MIC is 1.17 µg/mL (≈ 2.96 µM) in [1]; 1.17 µg/mL (≈ 2.96 µM) against S. aureus; 18.7 µg/mL (≈ 47.4 µM) in experiment [4]; 0.292 µg/mL (≈ 0.74 µM) in experiment [2] (setting [11]); 0.146 µg/mL (≈ 0.37 µM) in the experiment on B. pumilus; more than 18.7 µg/mL against K. pneumoniae. Moreover, the MIC came out at 0.584 µg/mL (≈ 1.48 µM) in the experiment with B. brevis; 18.7 µg/mL (≈ 47.4 µM) in experiment [6]; 0.146 µg/mL (≈ 0.37 µM) with Ames spores [7]; 0.584 µg/mL (≈ 1.48 µM) with B. anthracis Ames; 0.584 µg/mL (≈ 1.48 µM) with B. megaterium; 18.7 µg/mL (≈ 47.4 µM) against Y. pestis. Further, the MIC in the experiment on E. feacalis is 0.584 µg/mL (≈ 1.48 µM); with Burkholderia mallei it was 9.34 µg/mL (≈ 23.7 µM); in the experiment on B. cepacia, 18.7 µg/mL (≈ 47.4 µM); in the experiment on B. subtilis it was 0.292 µg/mL (≈ 0.74 µM); in the experiment with B. licheniformis it was 2.33 µg/mL (≈ 5.92 µM); against P. aeruginosa PAO1 it was 1.17 µg/mL (≈ 2.96 µM). Moreover, the figures for the MIC (in experiment [8]; against E. coli) were 2.33 µg/mL (≈ 5.92 µM) and 0.584 µg/mL (≈ 1.48 µM), respectively. Further, in the experiment with Sterne spores, the “effect on spore germination” value was “results to those of NSC 317881 were obtained”. The same compound yielded an MBC with Ames spores [5] of 0.146 µg/mL (≈ 0.37 µM). For the same compound, the “inhibition … of anthrax lethal factor” value at anthrax lethal factor is recorded as “inhibit”.
On to `c1cc2cc(-c3ccc(-c4cc5ccc(C6=NCCN6)cc5[nH]4)cc3)[nH]c2cc1C1=NCCN1` [NSC 317881, 6-(4,5-dihydro-1H-imidazol-2-yl)-2-[4-[6-(4,5-dihydro-1H-imidazol-2-yl)-1H-indol-2-yl]phenyl]-1H-indole], for which the MIC is 0.646 µg/mL (≈ 1.45 µM) in [1]; 0.323 µg/mL (≈ 0.727 µM) with S. aureus; more than 20.7 µg/mL in [4]; 0.084 µg/mL (≈ 0.189 µM) in [2] (22 h, read-out: MIC (figure legend)); 0.162 µg/mL (≈ 0.364 µM) in experiment [2] (setting [11]); 0.021 µg/mL (≈ 0.0472 µM) against B. pumilus. The MIC in the experiment on K. pneumoniae was determined as 10.3 µg/mL (≈ 23.3 µM); in the experiment on B. brevis it was 0.646 µg/mL (≈ 1.45 µM); in experiment [6], 20.7 µg/mL (≈ 46.5 µM); in the experiment on Ames spores [7] it was 0.162 µg/mL (≈ 0.364 µM); with B. anthracis Ames, 0.32 µg/mL (≈ 0.72 µM); against B. megaterium, 0.323 µg/mL (≈ 0.727 µM). Moreover, the MIC is 20.7 µg/mL (≈ 46.5 µM) in the experiment on Y. pestis; 0.162 µg/mL (≈ 0.364 µM) in the experiment with E. feacalis; 10.3 µg/mL (≈ 23.3 µM) against Burkholderia mallei; more than 20.7 µg/mL in the experiment with B. cepacia; 0.162 µg/mL (≈ 0.364 µM) in the experiment on B. subtilis; 0.646 µg/mL (≈ 1.45 µM) against B. licheniformis. The figures for the MIC (with P. aeruginosa PAO1; in experiment [8]; with E. coli) were 0.323 µg/mL (≈ 0.727 µM), 0.323 µg/mL (≈ 0.727 µM) and 0.646 µg/mL (≈ 1.45 µM), respectively. Moreover, the “effect on spore germination” value with Sterne spores is “does not have an effect on spore germination”. For the same compound, the “time after contact with germination medium by which treated spores were killed by heat” value in the experiment with Sterne spores is not above 15 min. Also, in the experiment with Ames spores [5], the MBC is 0.162 µg/mL (≈ 0.364 µM). The “inhibition … of anthrax lethal factor” value against anthrax lethal factor was “inhibit”. The “reduction in cfu as compared to the DMSO control” value in the experiment on Sterne GFP spores is reported as “considerable reduction”. Further, the “treatment time after which no viable spores were detected” value in the experiment on Sterne GFP spores was approximately 4 h.
On to `c1cc2cc(-c3ccc4cc(C5=NCCN5)[nH]c4c3)[nH]c2cc1C1=NCCN1` [NSC 330687, 2-(4,5-dihydro-1H-imidazol-2-yl)-6-[6-(4,5-dihydro-1H-imidazol-2-yl)-1H-indol-2-yl]-1H-indole], for which the MIC in experiment [1] was 1.1 µg/mL (≈ 2.99 µM); with S. aureus it was 1.1 µg/mL (≈ 2.99 µM); in [4] it was more than 17.6 µg/mL; in [2] (setting [11]) it was 0.551 µg/mL (≈ 1.5 µM); against B. pumilus it was 0.138 µg/mL (≈ 0.375 µM); with K. pneumoniae, more than 17.6 µg/mL. In addition, the MIC with B. brevis is 0.276 µg/mL (≈ 0.749 µM); in experiment [6], 17.6 µg/mL (≈ 47.9 µM); with Ames spores [7] it was 0.276 µg/mL (≈ 0.749 µM); in the experiment with B. anthracis Ames, 1.1 µg/mL (≈ 2.99 µM); in the experiment on B. megaterium, 0.551 µg/mL (≈ 1.5 µM); in the experiment on Y. pestis, 8.82 µg/mL (≈ 23.9 µM). The MIC in the experiment with E. feacalis came to 2.21 µg/mL (≈ 5.98 µM); against Burkholderia mallei, 8.82 µg/mL (≈ 23.9 µM); against B. cepacia it was 4.41 µg/mL (≈ 12 µM); against B. subtilis it was 0.551 µg/mL (≈ 1.5 µM); against B. licheniformis it was 2.21 µg/mL (≈ 5.99 µM); against P. aeruginosa PAO1, 17.6 µg/mL (≈ 47.9 µM). In addition, the MIC in experiment [8] came to 2.2 µg/mL (≈ 5.97 µM); against E. coli, 1.1 µg/mL (≈ 2.99 µM). The “effect on spore germination” value in the experiment on Sterne spores is given as “results to those of NSC 317881 were obtained”. In the experiment with Ames spores [5], this compound returned an MBC of 0.276 µg/mL (≈ 0.749 µM).
As to `NC(N)=NN=Cc1ccc2cc(-c3ccc(/C=N/N=C(N)N)cc3)sc2c1` [NSC 341909, 2-[[2-[4-[(E)-(diaminomethylidenehydrazinylidene)methyl]-phenyl]benzothiophen-6-yl]methylideneamino]guanidine], the values for the MIC in [1] and in experiment [2] (setting [11]) were 18 µg/mL (≈ 47.7 µM) and 4.51 µg/mL (≈ 11.9 µM), respectively. Besides, the “inhibition … of anthrax lethal factor” value against anthrax lethal factor was “inhibit”. For the same compound, the “inhibition of botulinum neurotoxin serotype A light chain metalloprotease activity” value in [3] is “inhibit”.
Regarding `c1cc2cc(-c3ccc4cc(-c5ccc6oc(C7=NCCN7)cc6c5)[nH]c4c3)[nH]c2cc1C1=NCCN1` [NSC 369718, 6-(4,5-dihydro-1H-imidazol-2-yl)-2-[2-[2-(4,5-dihydro-1H-imidazol-2-yl)benzofuran-5-yl]-1H-indol-6-yl]-1H-indole], the MIC came out at 0.696 µg/mL (≈ 1.44 µM) in [1]; 0.696 µg/mL (≈ 1.44 µM) in the experiment on S. aureus; 2.79 µg/mL (≈ 5.75 µM) in [4]; 0.348 µg/mL (≈ 0.718 µM) in experiment [2] (setting [11]); 0.348 µg/mL (≈ 0.718 µM) in the experiment on B. vollum [9]; 0.348 µg/mL (≈ 0.718 µM) against B. pumilus. Moreover, the MIC was determined as 5.57 µg/mL (≈ 11.5 µM) against K. pneumoniae; 0.174 µg/mL (≈ 0.359 µM) in the experiment on B. brevis; 2.78 µg/mL (≈ 5.75 µM) in [6]; 0.174 µg/mL (≈ 0.359 µM) in the experiment on Ames spores [7]; 1.39 µg/mL (≈ 2.87 µM) with B. anthracis Ames; 0.348 µg/mL (≈ 0.718 µM) with B. megaterium. The MIC with Y. pestis was determined as 1.39 µg/mL (≈ 2.87 µM); with E. feacalis, 0.696 µg/mL (≈ 1.44 µM); in the experiment on Burkholderia mallei it was 11.1 µg/mL (≈ 23 µM); in the experiment on B. cepacia, 22.3 µg/mL (≈ 46 µM); against B. subtilis it was 0.348 µg/mL (≈ 0.718 µM); in the experiment with B. licheniformis it was 1.39 µg/mL (≈ 2.87 µM). Further, the results for the MIC (against P. aeruginosa PAO1; in experiment [8]; with E. coli) were 1.39 µg/mL (≈ 2.87 µM), 2.79 µg/mL (≈ 5.75 µM) and 1.39 µg/mL (≈ 2.87 µM), respectively. For the same compound, in the experiment on Sterne spores, the “effect on spore germination” value is listed as “results to those of NSC 317881 were obtained”. In addition, the MBC against Ames spores [5] worked out at 0.174 µg/mL (≈ 0.359 µM); against B. vollum [10], 0.348 µg/mL (≈ 0.718 µM).
